In patent publication US11395847B2, “Acylated GLP-1/GLP-2 dual agonists” (Zealand Pharma A/S, priority 2016, dated 2022):
Where a SMILES comes first, the peptide text is derived from it.

Tests used:
human GLP-1 receptor = target: T1, human GLP-1 receptor (Homo sapiens, UniProt P43220); assay: GLP-1 receptor potency assay (cAMP ALPHASCREEN, HEK293 cells stably expressing GLP-1 R); format: cell-based; conditions: cAMP response, HEK293 cells expressing human GLP-1 R
T1 construct: expressed in transfected cells
T1 sequence (P43220 24-463): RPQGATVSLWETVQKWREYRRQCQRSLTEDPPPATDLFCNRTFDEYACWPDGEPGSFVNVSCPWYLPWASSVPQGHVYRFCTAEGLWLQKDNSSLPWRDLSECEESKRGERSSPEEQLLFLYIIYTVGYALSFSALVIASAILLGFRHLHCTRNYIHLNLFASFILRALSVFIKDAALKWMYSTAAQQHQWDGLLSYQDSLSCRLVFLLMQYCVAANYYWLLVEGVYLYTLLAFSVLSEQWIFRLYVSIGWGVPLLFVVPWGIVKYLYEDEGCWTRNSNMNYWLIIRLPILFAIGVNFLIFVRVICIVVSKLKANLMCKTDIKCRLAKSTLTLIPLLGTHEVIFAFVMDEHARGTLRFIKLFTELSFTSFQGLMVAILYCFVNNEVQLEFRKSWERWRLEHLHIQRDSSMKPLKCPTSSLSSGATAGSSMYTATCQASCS
In short: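 Clonal HEK293 line stably transfected with human GLP-1R (G418-selected) was treated with test compounds and the cAMP response quantified by ALPHASCREEN. Signals were normalized to positive control and vehicle, with EC50 and maximal response taken from concentration-response curves.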

human GLP-2 receptor = target: T2, human GLP-2 receptor (Homo sapiens, UniProt O95838, D470N); assay: GLP-2 receptor potency assay (cAMP ALPHASCREEN, HEK293 cells stably expressing GLP-2 R); format: cell-based; conditions: cAMP response, HEK293 cells expressing human GLP-2 R; read-out: EC50 GLP-2
T2 construct: expressed in transfected cells
T2 sequence (O95838 1-553 D470N): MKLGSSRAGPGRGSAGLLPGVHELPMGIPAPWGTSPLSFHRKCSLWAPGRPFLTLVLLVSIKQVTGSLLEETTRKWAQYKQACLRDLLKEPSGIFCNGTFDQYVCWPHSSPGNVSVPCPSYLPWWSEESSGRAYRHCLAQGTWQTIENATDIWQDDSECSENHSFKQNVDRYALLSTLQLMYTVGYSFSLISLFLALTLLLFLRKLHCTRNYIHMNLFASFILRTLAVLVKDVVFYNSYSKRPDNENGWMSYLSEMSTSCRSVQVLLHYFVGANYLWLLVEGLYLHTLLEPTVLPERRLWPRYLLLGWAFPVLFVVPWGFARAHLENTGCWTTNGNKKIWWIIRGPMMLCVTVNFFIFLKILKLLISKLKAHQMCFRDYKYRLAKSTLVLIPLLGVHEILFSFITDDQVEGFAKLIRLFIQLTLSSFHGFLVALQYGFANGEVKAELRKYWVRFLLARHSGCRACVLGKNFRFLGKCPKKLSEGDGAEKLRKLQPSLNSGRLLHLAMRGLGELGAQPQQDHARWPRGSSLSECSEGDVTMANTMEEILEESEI
In short: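 HEK293 clones stably transfected with the human GLP-2 receptor, selected with G418, were used. Intracellular cAMP was quantified by AlphaScreen. Responses were normalised to positive and vehicle controls, and EC50 and maximal response were taken from concentration-response curves.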

[1] = Chemical stability (RP-HPLC normalized purity after incubation at 40° C.); format: physicochemical; conditions: 14-day incubation, 0.2 mg/ml, normalized purity (area-%); for pH 6 normalized stability: pH 6, 40° C.; for pH 7 normalized stability: pH 7, 40° C.
In short: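 Peptide at 0.2 mg/ml final in water adjusted to pH 6, 7, 7.5 or 9, incubated at 40° C for 14 days. Purity measured as main-peak area-% by C18 RP-HPLC (acetonitrile/TFA/water gradient, UV 220 nm) and normalized to T=0 set at 100 for each pH.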

## CC[C@H](C)[C@H](NC(=O)[C@H](Cc1ccccc1)NC(=O)[C@H](CC(=O)O)NC(=O)[C@H](CCCNC(=N)N)NC(=O)[C@H](C)NC(=O)[C@H](C)NC(=O)[C@H](CCC(N)=O)NC(=O)[C@H](CCCCNC(=O)[C@H](CCCCN)NC(=O)[C@H](CCC(=O)O)NC(=O)[C@H](CCCCN)NC(=O)CC[C@H](NC(=O)CCCCCCCCCCCCCCCCCCC(=O)O)C(=O)O)NC(=O)[C@H](CC(=O)O)NC(=O)[C@H](CC(C)C)NC(=O)[C@@H](NC(=O)[C@@H](NC(=O)[C@H](C)NC(=O)[C@H](CC(C)C)NC(=O)[C@H](CCC(=O)O)NC(=O)[C@H](CO)NC(=O)[C@@H](NC(=O)[C@H](Cc1ccccc1)NC(=O)[C@@H](NC(=O)CNC(=O)[C@H](CCC(=O)O)NC(=O)C(C)(C)NC(=O)[C@@H](N)Cc1c[nH]cn1)[C@@H](C)O)[C@@H](C)O)[C@@H](C)O)[C@@H](C)CC)C(=O)N[C@@H](C)C(=O)N[C@@H](Cc1c[nH]c2ccccc12)C(=O)N[C@@H](CC(C)C)C(=O)N[C@H](C(=O)N[C@@H](CCC(N)=O)C(=O)N[C@@H](Cc1c[nH]cn1)C(=O)N[C@@H](CCCCN)C(=O)N[C@H](C(=O)N[C@H](C(=O)N[C@@H](CC(=O)O)C(=O)O)[C@@H](C)O)[C@@H](C)CC)[C@@H](C)CC [Compound 51] (HELM PEPTIDE1{H.[Aib].E.G.T.F.T.S.E.L.A.T.I.L.D.K.Q.A.A.R.D.F.I.A.W.L.I.Q.H.K.I.T.D}|PEPTIDE2{[O=C(O)CCCCCCCCCCCCCCCCCCC(=O)[*:2]].[gGlu].K.E.K}$PEPTIDE1,PEPTIDE2,16:R3-5:R2$$$V2.0)
Human GLP-1 receptor
  EC50: 0.02 nM
Human GLP-2 receptor
  EC50: 0.18 nM

## CC[C@H](C)[C@H](NC(=O)[C@H](Cc1ccccc1)NC(=O)[C@H](CC(=O)O)NC(=O)[C@H](CCCNC(=N)N)NC(=O)[C@H](C)NC(=O)[C@H](C)NC(=O)[C@H](CCC(N)=O)NC(=O)[C@H](CCCCNC(=O)CC[C@H](NC(=O)CCCCCCCCCCCCCCCCC(=O)O)C(=O)O)NC(=O)[C@H](CC(=O)O)NC(=O)[C@H](CC(C)C)NC(=O)[C@@H](NC(=O)[C@@H](NC(=O)[C@H](C)NC(=O)[C@H](CC(C)C)NC(=O)[C@H](CCC(=O)O)NC(=O)[C@H](CO)NC(=O)[C@H](CO)NC(=O)[C@H](Cc1ccccc1)NC(=O)[C@H](CO)NC(=O)CNC(=O)[C@H](CC(=O)O)NC(=O)C(C)(C)NC(=O)[C@@H](N)Cc1c[nH]cn1)[C@@H](C)O)[C@@H](C)CC)C(=O)N[C@@H](C)C(=O)N[C@@H](Cc1c[nH]c2ccccc12)C(=O)N[C@@H](CC(C)C)C(=O)N[C@H](C(=O)N[C@@H](CCC(N)=O)C(=O)N[C@@H](Cc1c[nH]cn1)C(=O)N[C@@H](CCCCN)C(=O)N[C@H](C(=O)N[C@H](C(=O)N[C@@H](CC(=O)O)C(=O)O)[C@@H](C)O)[C@@H](C)CC)[C@@H](C)CC [A, reference compound] (HELM PEPTIDE1{H.[Aib].D.G.S.F.S.S.E.L.A.T.I.L.D.K.Q.A.A.R.D.F.I.A.W.L.I.Q.H.K.I.T.D}|PEPTIDE2{[O=C(O)CCCCCCCCCCCCCCCCC(=O)[*:2]].[gGlu]}$PEPTIDE1,PEPTIDE2,16:R3-2:R2$$$V2.0)
Human GLP-1 receptor
  EC50: 0.49 nM
Human GLP-2 receptor
  EC50: 0.083 nM
[1]
  pH 6 normalized stability: C (<80% normalized stability)
  pH 7 normalized stability: B (>80% stability)

## CC[C@H](C)[C@H](NC(=O)[C@H](Cc1ccccc1)NC(=O)[C@H](CC(=O)O)NC(=O)[C@H](CCCNC(=N)N)NC(=O)[C@H](C)NC(=O)[C@H](C)NC(=O)[C@H](CCC(N)=O)NC(=O)[C@H](CCCCNC(=O)CC[C@H](NC(=O)CCCCCCCCCCCCCCCCC(=O)O)C(=O)O)NC(=O)[C@H](CC(=O)O)NC(=O)[C@H](CC(C)C)NC(=O)[C@@H](NC(=O)[C@@H](NC(=O)[C@H](C)NC(=O)[C@H](CC(C)C)NC(=O)[C@H](CCC(=O)O)NC(=O)[C@H](CO)NC(=O)[C@@H](NC(=O)[C@H](Cc1ccccc1)NC(=O)[C@H](CO)NC(=O)CNC(=O)[C@H](CCC(=O)O)NC(=O)C(C)(C)NC(=O)[C@@H](N)Cc1c[nH]cn1)[C@@H](C)O)[C@@H](C)O)[C@@H](C)CC)C(=O)N[C@@H](C)C(=O)N[C@@H](Cc1c[nH]c2ccccc12)C(=O)N[C@@H](CC(C)C)C(=O)N[C@H](C(=O)N[C@@H](CO)C(=O)N[C@@H](Cc1c[nH]cn1)C(=O)N[C@@H](CCCCN)C(=O)N[C@H](C(=O)N[C@H](C(=O)N[C@@H](CC(=O)O)C(=O)O)[C@@H](C)O)[C@@H](C)CC)[C@@H](C)CC [Compound 31] (HELM PEPTIDE1{H.[Aib].E.G.S.F.T.S.E.L.A.T.I.L.D.K.Q.A.A.R.D.F.I.A.W.L.I.S.H.K.I.T.D}|PEPTIDE2{[O=C(O)CCCCCCCCCCCCCCCCC(=O)[*:2]].[gGlu]}$PEPTIDE1,PEPTIDE2,16:R3-2:R2$$$V2.0)
Human GLP-1 receptor
  EC50: 0.27 nM
Human GLP-2 receptor
  EC50: 0.24 nM
[1]
  pH 6 normalized stability: A (>90% normalised stability)
  pH 7 normalized stability: A (>90% normalised stability)

## CC[C@H](C)[C@H](NC(=O)[C@H](Cc1ccccc1)NC(=O)[C@H](CC(=O)O)NC(=O)[C@H](CCCNC(=N)N)NC(=O)[C@H](C)NC(=O)[C@H](C)NC(=O)[C@H](CCCCNC(=O)COCCOCCNC(=O)[C@H](CCCCN)NC(=O)[C@H](CCC(=O)O)NC(=O)[C@H](CCCCN)NC(=O)CC[C@H](NC(=O)CCCCCCCCCCCCCCCCCCC(=O)O)C(=O)O)NC(=O)CNC(=O)[C@H](CCC(=O)O)NC(=O)[C@H](CC(C)C)NC(=O)[C@@H](NC(=O)[C@@H](NC(=O)[C@H](C)NC(=O)[C@H](CC(C)C)NC(=O)[C@H](CCC(=O)O)NC(=O)[C@H](CO)NC(=O)[C@@H](NC(=O)[C@H](Cc1ccccc1)NC(=O)[C@H](CO)NC(=O)CNC(=O)[C@H](CCC(=O)O)NC(=O)C(C)(C)NC(=O)[C@@H](N)Cc1c[nH]cn1)[C@@H](C)O)[C@@H](C)O)[C@@H](C)CC)C(=O)N[C@@H](C)C(=O)N[C@@H](Cc1c[nH]c2ccccc12)C(=O)N[C@@H](CC(C)C)C(=O)N[C@H](C(=O)N[C@@H](CCC(=O)O)C(=O)N[C@@H](Cc1c[nH]cn1)C(=O)N[C@@H](CCCCN)C(=O)N[C@H](C(=O)N[C@H](C(=O)N[C@@H](CC(=O)O)C(=O)O)[C@@H](C)O)[C@@H](C)CC)[C@@H](C)CC [Compound 61] (HELM PEPTIDE1{H.[Aib].E.G.S.F.T.S.E.L.A.T.I.L.E.G.K.A.A.R.D.F.I.A.W.L.I.E.H.K.I.T.D}|PEPTIDE2{[O=C(O)CCCCCCCCCCCCCCCCCCC(=O)[*:2]].[gGlu].K.E.K.[O=C(COCCOCCN[*:1])[*:2]]}$PEPTIDE1,PEPTIDE2,17:R3-6:R2$$$V2.0)
Human GLP-1 receptor
  EC50: 0.13 nM
Human GLP-2 receptor
  EC50: 0.2 nM

## CC[C@H](C)[C@H](NC(=O)[C@H](Cc1ccccc1)NC(=O)[C@H](CC(=O)O)NC(=O)[C@H](CCCCNC(=O)COCCOCCNC(=O)[C@H](CCCCN)NC(=O)[C@H](CCC(=O)O)NC(=O)[C@H](CCCCN)NC(=O)CC[C@H](NC(=O)CCCCCCCCCCCCCCCCCCC(=O)O)C(=O)O)NC(=O)[C@H](C)NC(=O)[C@H](C)NC(=O)[C@H](CCC(N)=O)NC(=O)[C@H](CCC(=O)O)NC(=O)[C@H](CC(=O)O)NC(=O)[C@H](CC(C)C)NC(=O)[C@@H](NC(=O)[C@@H](NC(=O)[C@H](C)NC(=O)[C@H](CC(C)C)NC(=O)[C@H](CCC(=O)O)NC(=O)[C@H](CO)NC(=O)[C@@H](NC(=O)[C@H](Cc1ccccc1)NC(=O)[C@@H](NC(=O)CNC(=O)[C@H](CCC(=O)O)NC(=O)C(C)(C)NC(=O)[C@@H](N)Cc1c[nH]cn1)[C@@H](C)O)[C@@H](C)O)[C@@H](C)O)[C@@H](C)CC)C(=O)N[C@@H](C)C(=O)N[C@@H](Cc1c[nH]c2ccccc12)C(=O)N[C@@H](CC(C)C)C(=O)N[C@H](C(=O)N[C@@H](CCC(=O)O)C(=O)N[C@@H](Cc1c[nH]cn1)C(=O)N[C@@H](CCCCN)C(=O)N[C@H](C(=O)N[C@H](C(=O)N[C@@H](CC(=O)O)C(=O)O)[C@@H](C)O)[C@@H](C)CC)[C@@H](C)CC [Compound 65] (HELM PEPTIDE1{H.[Aib].E.G.T.F.T.S.E.L.A.T.I.L.D.E.Q.A.A.K.D.F.I.A.W.L.I.E.H.K.I.T.D}|PEPTIDE2{[O=C(O)CCCCCCCCCCCCCCCCCCC(=O)[*:2]].[gGlu].K.E.K.[O=C(COCCOCCN[*:1])[*:2]]}$PEPTIDE1,PEPTIDE2,20:R3-6:R2$$$V2.0)
Human GLP-1 receptor
  EC50: 0.13 nM
Human GLP-2 receptor
  EC50: 0.35 nM
